Reference: patent US11180484B2, “Pyrazole derivatives as plasma kallikrein inhibitors” (KALVISTA PHARMACEUTICALS LIMITED, priority 2016, dated 2021)
≈ marks a conversion by molar mass, not a printed value. Where two headings read alike, the source gives them in different places.

Legend:
[1] = Solubility in water and 0.1N HCl (aq); type: physicochemical; conditions: thermodynamic from solid, incubated at 1 mg/mL, 37° C.
Procedure: Solubility was determined in water and 0.1N HCl (aq). Test compounds were incubated at 1 mg/mL for 24 hrs at 37° C. on a shaking platform (500 rpm). Samples were taken at 1, 4 and 24 hrs and centrifuged at 15,000 g for 10 min. Test compound concentration in the supernatant was determined by LCMS against a standard curve.

[2] = In vitro permeability, Caco-2 model for oral absorption; type: in vitro ADME; conditions: human, apical to basolateral, 50 μM test compound, 37° C.
How it was run: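 Caco-2 monolayers grown on collagen inserts for 3 days, with 50 μM compound added apically and incubated 1 hour at 37° C with shaking. Apical-to-basolateral transport measured by LCMS in both compartments. Monolayer integrity checked by TEER before and after, and by Lucifer Yellow flux.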

[3] = Pharmacokinetics following a single oral dose in male Sprague-Dawley rats; type: in vivo; conditions: rat, single po dose (nominal 10 mg/kg; actual dose per row in column Dose po), 10% DMSO/10% cremophor/80% SWFI, plasma
Procedure: Pharmacokinetic studies of the compounds in Table 13 were performed to assess the pharmacokinetics following a single oral dose in male Sprague-Dawley rats. Two rats were given a single po dose of 5 mL/kg of a nominal 2 mg/mL (10 mg/kg) composition of test compound in vehicle. Following dosing, blood samples were collected over a period of 24 hours. Sample times were 5, 15 and 30 minutes then 1, 2, 4, 6, 8 and 12 hours. Following collection, blood samples were centrifuged and the plasma fraction analysed for concentration of test compound by LCMS.

[4] = simulated gastric fluid, 0.1N HCl (aq), read-out: Solubility 0.1N HCl (aq)
[5] = water, read-out: Solubility Water

For `COCc1nn(Cc2ccc(Cn3ccccc3=O)cc2)cc1C(=O)NCc1c(-n2cnnn2)ccc(OC)c1F` [Example 39, N-{[2-Fluoro-3-methoxy-6-(1,2,3,4-tetrazol-1-yl)phenyl]methyl}-3-(methoxymethyl)-1-({4-[(2-oxopyridin-1-yl)methyl]phenyl}methyl)pyrazole-4-carboxamide], the solubility [1, 4] was 19 µg/mL (≈ 34 µM), the solubility [1, 5] was 7 µg/mL (≈ 12.5 µM) and the Papp at 1 h, 50 μM [2] was 6 ×10⁻⁶ cm/s. For the same compound, the Cmax [3] was 187 ng/mL and the Tmax [3] was 30 min.
For `COCc1nn(Cc2cnc(N3CCCC3)nc2)cc1C(=O)NCc1c(-n2cnnn2)ccc(OC)c1F` [Example 79, N-{[2-Fluoro-3-methoxy-6-(1,2,3,4-tetrazol-1-yl)phenyl]methyl}-3-(methoxymethyl)-1-{[2-(pyrrolidin-1-yl)pyrimidin-5-yl]methyl}pyrazole-4-carboxamide], the solubility [1, 4] was 924 µg/mL (≈ 1770 µM), the solubility [1, 5] was 93 µg/mL (≈ 178 µM) and the Papp at 1 h, 50 μM [2] was 19 ×10⁻⁶ cm/s. It also gave a Cmax [3] of 807 ng/mL and a Tmax [3] of 45 min.
